Experimental data as given in US11234960B2, “Compositions and methods for improving mitochondrial function and treating neurodegenerative diseases and cognitive disorders” (Amazentis SA, priority 2010, dated 2022).

Assays:
Type in all cases: in vivo
[1] = tested on: maternally separated mice; test: Forced swim test in early-life stress mice; details: early-life stressed mice, 90 mg/kg/day in food (FIG. 41)
Method: At postnatal day 1, pups were culled to have 6 pups per mother. From postnatal day 1 to 14, unpredictable maternal separation (MS) of a period of 3 hours daily was carried out. Maternal separation was performed at random times (from 8 am to 2 pm) to avoid the habituation of the mother to the procedure. The protocol consisted of removing pups from their mother to another cage at room temperature for a 3 hour period, after which the pups were returned to their original nest. These groups are denoted as early-life stress in the figures. A control group of dam/pups was left undisturbed and is denoted in the figures as normal.
One week after maternal separation mice were separated into two groups. One control group received the standard mouse chow diet (Untreated), while the other group received the ellagitannin punicalagin admixed into the food and designed to deliver a dose of 90 mg/kg/day to the mice. Treatment with the diet began 1 week after the termination of the maternal separation treatment. […]
Animals were considered to be engaged in swimming and mobile if there was a clear displacement of the body. […] Animal behavior was recorded over a 6-minute test period using a camera and a mirror behind the cylinder. The first 2 minutes and the last 4 minutes of the swimming were analyzed separately for mouse swimming activity. […]

[2] = tested on: C57BL/6J mice exposed to chronic unpredictable stress; test: Morris water maze in chronically stressed mice; details: 25 mg/kg/d (FIG. 34)
Method: (§1) Three weeks before the initiation of the chronic stress protocol mice were separated into four different groups. One group received standard mouse chow diet (Control), while the remaining three groups received varying doses of extract 1011, an extract derived from pomegranate juice. Low dose corresponded to an extract dose of 21 mg/kg/d of gallic acid equivalents of polyphenols (GAE PPE), the medium dose corresponded to an extract dose of 43 mg/kg/d of GAE PPE, the high dose corresponded to an extract dose of 86 mg/kg/d of GAE PPE (see Table 5).
(§2) Three weeks before the initiation of the chronic stress protocol, mice were separated into two groups. […]
(§3) The unpredictable chronic stress protocol involved exposing animals to a daily stressful situation at an unpredictable moment for 4 weeks (between 8 am and 4 pm, and randomly distributed over the 28 days). […] All animals were weighed and the state of their coat was evaluated on a regular basis (every 3-5 days). […]
Each trial started by introducing the mouse into the maze with the aid of a cup, facing the pool wall, and at one of four possible positions that were randomly balanced between trials and days. The distance between the mouse and the platform was measured at each sampling time, with 25 sampling times collected per second. […]

[3] = tested on: C57BL/6J mice exposed to chronic unpredictable stress; test: Contextual fear conditioning in chronically stressed mice; details: 25 mg/kg/d in diet, daily exposure for four days (FIG. 31)
Method: as §1, §2, §3
Contextual fear conditioning was used to test the effect of pomegranate extract on anxiety induction (i.e., learned anxiety) in mice in response to contextual recognition. […] To determine the effect of chronic stress and the various doses of pomegranate extract on the level of anxiety induced by this contextual memory, the level of anxiety-induced behavior in response to this context was measured. […]

| SMILES | immobility / swimming activity in forced swim test [1] | Morris water maze learning, variability of distance to platform between sequential trials [2] | extinction of memory of the adverse context (freezing) [3] |
| --- | --- | --- | --- |
| O=C1O[C@H]2[C@@H]3OC(=O)c4cc(O)c(O)c(O)c4-c4c(O)c(O)c5oc(=O)c6c(c(O)c(O)c7oc(=O)c4c5c76)-c4c(cc(O)c(O)c4O)C(=O)OC[C@H]3OC(O)[C@@H]2OC(=O)c2cc(O)c(O)c(O)c2-c2c1cc(O)c(O)c2O (mixture of isomers) [punicalagin, 2,3 hexahydroxydiphenoyl-4,6-gallagylglucose] | increased swimming activity to levels seen in non-stressed mice | – | – |
| O=c1oc2cc(O)ccc2c2ccc(O)cc12 [urolithin A, 3,8-Dihydroxydibenzo-α-pyrone] | – | stabilization of this variability | significant improvement in adverse memory extinction |
